In patent publication US20240190855A1 (Relay Therapeutics, Inc., priority 2021, published 2024):

Target: T1, CDK2/Cyclin E complex (Homo sapiens, UniProt P24941)
T1 construct: purchased Eurofins 14-475
Assay: CDK2/Cyclin E fluorescence-based microfluidic mobility shift assay (CDK2 Biochemical Caliper Assay)
Details: read-out: Biochemical CDK2/CyclinE Caliper IC50
Protocol: Compounds of the present disclosure were tested in a CDK2/Cyclin E fluorescence-based microfluidic mobility shift assay (PerkinElmer).
The active wild type CDK2/Cyclin E complex was purchased from Eurofins (14-475). Compound stocks were prepared in DMSO and were serially diluted into 11 concentrations by 3-fold dilution. […] Compounds were incubated in the presence of CDK2/Cyclin E complex and ATP for 30 minutes at room temperature. Catalytic reaction was initiated with the addition of 5 uL of a 4× peptide solution containing 6 uM fluorescently label substrate peptide, FL Peptide 18 (aa sequence 5-FAM-QSPKKG, PerkinElmer, 760362) in 1× reaction buffer.
The final reaction components were 0.1 nM CDK2/Cyclin E, 2000 uM ATP and 1.5 uM FL Peptide 18 and 1% DMSO. Reactions were incubated RT for 20 hr and terminated with 75 uL of a stopping solution containing 0.5 M EDTA. Samples were analyzed using a LabChip EZ reader (PerkinElmer).

Row | IC50 [nM] | Structure (SMILES)
1 | 1000 to 100000 | Cc1cc(CC(=O)Nc2cc([C@H]3CC[C@@H](COC(=O)NC(C)C)CC3)[nH]n2)on1 [Example 135]
2 | 1000 to 100000 | Cc1cc(CC(=O)Nc2cc(C3CCCC3)[nH]n2)on1 [Example 66]
3 | 1000 to 100000 | Cc1cc(CC(=O)Nc2cc(N3CC[C@H](COC(=O)NC4(C)CC4)C3)[nH]n2)on1 [Example 51]
4 | 1000 to 100000 | COCc1cc(C(=O)Nc2cc([C@@H]3CC[C@H](Oc4cncnc4C)C3)[nH]n2)n(C)n1 (single isomer, unassigned) [Example 491]
5 | 100 to 250 | Cc1cc(CC(=O)Nc2cc([C@H]3C[C@H](COc4nnccc4C(C)C)C3)[nH]n2)on1 [Example 432]
6 | 1000 to 100000 | Cc1cc(CC(=O)Nc2cc([C@@H]3CC[C@@H](N(C)C(=O)NC(C)C)C3)[nH]n2)on1 (single isomer, unassigned) [Example 142]
7 | ≤ 100 | CC(C)NC(=O)O[C@@H]1CC[C@H](c2cc(NC(=O)c3cc(CN4CC(F)(F)C4)nn3C)n[nH]2)C1 [Example 672]
8 | ≤ 100 | Cn1nc(COC(F)(F)F)cc1C(=O)Nc1cc([C@@H]2C[C@H](OC(=O)NC3(C)COC3)CO2)[nH]n1 [Example 893]
9 | ≤ 100 | COCc1cc2c(Nc3cc([C@H]4C[C@@H](OC(=O)NC(C)C)CO4)[nH]n3)nccn2n1 [Example 544]
10 | 250 to 1000 | COCc1cc(C(=O)Nc2cc([C@H]3CC[C@@H](c4ccc(C)[nH]c4=O)C3)[nH]n2)n(C)n1 (racemic) [Example 518]
11 | 1000 to 100000 | COCc1cc(C(=O)Nc2cc([C@H]3C[C@@H]4[C@H](C3)[C@H]4C(=O)N(C)C)[nH]n2)n(C)n1 [Example 540]
12 | ≤ 100 | COCc1cc2c(Nc3cc([C@@H]4C[C@H](OC(=O)N[C@H](C)C5CC5)CO4)[nH]n3)nccn2n1 [Example 765]
13 | ≤ 100 | COCc1cc2c(Nc3cc([C@H]4C[C@@H](OC(=O)NC5(COC)CC5)CO4)[nH]n3)nccn2n1 [Example 668]
14 | 1000 to 100000 | COCc1cc(C(=O)Nc2cc([C@@H]3CC[C@@H](c4nccc(C(C)C)n4)C3)[nH]n2)n(C)n1 (single isomer, unassigned) [Example 612]
15 | 100 to 250 | Cc1cc(CC(=O)Nc2cc([C@H]3C[C@@H](OC(=O)NC(C)C)CO3)[nH]n2)on1 (single isomer, unassigned) [Example 346]
16 | ≤ 100 | COCc1cc(C(=O)Nc2ncc([C@@H]3C[C@H](OC(=O)NC4(C)CC4)CO3)s2)n(C)n1 (single isomer, unassigned) [Example 900]
17 | 1000 to 100000 | CNS(=O)(=O)N[C@H]1CC[C@@H](c2cc(NC(=O)Cc3cc(C)no3)n[nH]2)C1 (single isomer, unassigned) [Example 146]
18 | 1000 to 100000 | Cn1cc2ccnc(Nc3cc([C@H]4C[C@@H](OC(=O)NC5(C)CC5)CO4)[nH]n3)c2n1 [Example 734]
19 | 250 to 1000 | CC(C)NC(=O)OC[C@H]1C[C@H](c2cc(Nc3nccc4ncsc34)n[nH]2)C1 [Example 457]
20 | ≤ 100 | CC(=O)Nc1cc([C@H]2CC[C@@H](Oc3nscc3C3CC3)C2)[nH]n1 (single isomer, unassigned) [Example 421]
21 | ≤ 100 | COCc1cc2c(Nc3cc([C@H]4C[C@@H](Oc5nncn5C5(C)CC5)CO4)[nH]n3)nccn2n1 [Example 707]

Row | IC50 [nM] | Structure (SMILES)
22 | ≤ 100 | COCc1cc2c(Nc3cc([C@H]4C[C@@H](OC(=O)NC(C)(C)C)CO4)[nH]n3)nccn2n1 (single isomer, unassigned) [Example 617]
23 | 1000 to 100000 | COCc1cc(C(=O)Nc2cc([C@H]3CC[C@@H](c4cc(C(C)C)ncn4)C3)[nH]n2)n(C)n1 (single isomer, unassigned) [Example 601]
24 | ≤ 100 | CC(C)c1ccnnc1O[C@H]1CO[C@@H](c2cc(Nc3nccn4nccc34)n[nH]2)C1 [Example 464]
25 | 1000 to 100000 | COc1cnc2c(Nc3cc(C4CCCC4)[nH]n3)nccc2c1 [Example 804]
26 | 250 to 1000 | COCc1cc(C(=O)Nc2cc([C@H]3CC[C@@H](Oc4nccnc4C)C3)[nH]n2)n(C)n1 (single isomer, unassigned) [Example 494]
27 | ≤ 100 | CO[C@@H](c1cc(C(=O)Nc2cc([C@H]3C[C@@H](OC(=O)NC4(C)CC4)CO3)[nH]n2)n(C)n1)C(F)(F)F (single isomer, unassigned) [Example 890]
28 | 1000 to 100000 | COCc1cc(C(=O)Nc2cc([C@H]3CC[C@@H](Oc4nccnc4C(F)F)C3)[nH]n2)n(C)n1 (single isomer, unassigned) [Example 502]
29 | 1000 to 100000 | Cc1cncc(O[C@H]2CC[C@@H](c3cc(NC(=O)Cc4cc(C)no4)n[nH]3)C2)c1 (single isomer, unassigned) [Example 354]
30 | 1000 to 100000 | COc1ccc2cnnc(Nc3cc(C4CCCC4)[nH]n3)c2c1 [Example 878]
31 | ≤ 100 | C[C@@H](NC(=O)O[C@H]1CO[C@@H](c2cc(NC(=O)c3cc(OCC(F)(F)F)nn3C)n[nH]2)C1)C1CC1 [Example 917]
32 | 1000 to 100000 | COCc1cc(C(=O)Nc2cc([C@@H]3CC[C@@H](c4ccc(C(C)C)cn4)C3)[nH]n2)n(C)n1 (racemic) [Example 571]
33 | ≤ 100 | CC1(NC(=O)O[C@H]2CO[C@@H](c3cc(Nc4ncnn5cccc45)n[nH]3)C2)CC1 [Example 722]
34 | 100 to 250 | COCc1cc(C(=O)Nc2cc([C@H]3C[C@@H](COc4cnn(C)c4C(C)C)C3)[nH]n2)n(C)n1 [Example 631]
35 | ≤ 100 | Cc1cc(CC(=O)Nc2cc([C@H]3CC[C@@H](OC(=O)CC(C)C)C3)[nH]n2)on1 (single isomer, unassigned) [Example 352]
36 | ≤ 100 | Cn1nc(COC(F)F)cc1C(=O)Nc1cc([C@H]2C[C@@H](OC(=O)NC3(C)CC3)CO2)[nH]n1 [Example 753]
37 | ≤ 100 | C[C@H](NC(=O)O[C@@H]1CO[C@H](c2cc(NC(=O)c3cc(COC(F)(F)F)nn3C)n[nH]2)C1)C1CC1 [Example 780]
38 | 250 to 1000 | COCc1cc(C(=O)Nc2cc([C@@H]3CC[C@H](Oc4nccnc4C)C3)[nH]n2)n(C)n1 (single isomer, unassigned) [Example 495]
39 | ≤ 100 | COCc1cc2c(Nc3cc([C@H]4C[C@@H](OC(=O)NC5(CC(F)(F)F)CC5)CO4)[nH]n3)nccn2n1 [Example 643]
40 | 100 to 250 | Cc1cc(CC(=O)Nc2cc([C@H]3CC[C@@H](Cc4cn[nH]c4C(C)C)C3)[nH]n2)on1 (single isomer, unassigned) [Example 409]
41 | 1000 to 100000 | COCc1cc(C(=O)Nc2cc([C@H]3C[C@@H](CC(=O)NC(C)C)C3)[nH]n2)n(C)n1 [Example 360]
42 | ≤ 100 | COCc1cc2c(Nc3cc([C@@H]4C[C@H](OC(=O)NC5(C(F)(F)F)CC5)CO4)[nH]n3)nccn2n1 [Example 764]

Row | IC50 [nM] | Structure (SMILES)
43 | ≤ 100 | Cc1cc(CC(=O)Nc2cc([C@@H]3CC[C@H](Oc4nnccc4C)C3)[nH]n2)on1 (single isomer, unassigned) [Example 120]
44 | ≤ 100 | CC(C)NC(=O)O[C@H]1CO[C@@H](c2cc(Nc3ccc4c(c3)C(C)(C)NC4=O)n[nH]2)C1 (single isomer, unassigned) [Example 549]
45 | 100 to 250 | Cc1cc(CC(=O)Nc2cc([C@H]3CC[C@@H](Oc4cccnc4C)C3)[nH]n2)on1 (single isomer, unassigned) [Example 359]
46 | 1000 to 100000 | COCc1cc2c(Nc3cc([C@H]4C[C@@H](OC(N)=O)CO4)[nH]n3)nccn2n1 [Example 659]
47 | ≤ 100 | CCOCc1cc(C(=O)Nc2cc([C@H]3C[C@@H](COC(=O)NC(C)C)C3)[nH]n2)n(C)n1 [Example 624]
48 | 1000 to 100000 | Oc1cc(Nc2cc(C3CCCC3)[nH]n2)ncn1 [Example 876]
49 | 1000 to 100000 | CCOCc1cc(C(=O)Nc2cc([C@H]3C[C@H](COC(=O)NC(C)C)C3)[nH]n2)n(C)n1 [Example 625]
50 | 1000 to 100000 | c1cn2nc(C3CC3)cc2c(Nc2cc(C3CCCC3)[nH]n2)n1 [Example 870]
51 | ≤ 100 | COCC1(NC(=O)O[C@@H]2CO[C@H](c3cc(NC(=O)c4cc(COC(F)(F)F)nn4C)n[nH]3)C2)CC1 [Example 894]
52 | 1000 to 100000 | Cc1ncccc1O[C@@H]1CO[C@H](c2cc(Nc3nccn4nccc34)n[nH]2)C1 [Example 521]
53 | ≤ 100 | COCc1cc2c(Nc3cc([C@@H]4C[C@H](Oc5nnccc5C(C)C)CO4)[nH]n3)nccn2n1 [Example 497]
54 | 1000 to 100000 | c1cn2ncc(Nc3cc(C4CCCC4)[nH]n3)cc2n1 [Example 793]
55 | ≤ 100 | COCc1cc2c(Nc3cc([C@H]4C[C@@H](COC(=O)N5[C@@H](C)CC[C@@H]5C)C4)[nH]n3)nccn2n1 [Example 621]
56 | ≤ 100 | C[C@H](NC(=O)O[C@H]1CO[C@@H](c2cc(NC(=O)c3cc(OCC(F)(F)F)nn3C)n[nH]2)C1)C1CC1 [Example 918]
57 | 1000 to 100000 | Cc1cc(CC(=O)Nc2cc([C@@H]3CC[C@@H](Cc4nncn4C(C)C)C3)[nH]n2)on1 (single isomer, unassigned) [Example 372]
58 | 1000 to 100000 | COCc1cc(C(=O)Nc2cc([C@H]3CC[C@H](c4cnc(C)cn4)C3)[nH]n2)n(C)n1 (single isomer, unassigned) [Example 579]
59 | 1000 to 100000 | Cc1cc(Nc2cc(C3CCCC3)[nH]n2)c2c(F)cccc2n1 [Example 812]
60 | 100 to 250 | COCc1cc(C(=O)Nc2cc([C@H]3C[C@@H](COc4cn[nH]c4C(C)C)C3)[nH]n2)n(C)n1 [Example 587]
61 | 1000 to 100000 | Cc1cc(CC(=O)Nc2cc(C3CCCN3)[nH]n2)on1 (centres unmarked) [Example 416]
62 | 100 to 250 | COCc1cc(C(=O)Nc2cc([C@H]3CC[C@@H](Oc4nnccc4-c4ccccc4)C3)[nH]n2)n(C)n1 (single isomer, unassigned) [Example 474]
